For test [1], the system named is tetrabenazine-induced ptosis. The experiment in a line: inhibition of tetrabenazine-induced depression (ptosis) in mice. The class given is in vivo.
In test [2] the test system is phenyl-p-quinone writhing. The test is described as follows: phenyl-p-quinone writhing assay in mice. Type of test: in vivo. Particulars: Mus musculus, sc. From the text: The (aminoalkylthio)hydroxydibenzoxepins of the present invention are also useful as analgetic agents due to their ability to alleviate pain in mammals. […] Exptl.

Each structure is given as a SMILES string.

Turning to `CNCCSC1=Cc2cc(O)ccc2Oc2ccc(F)cc21` [Example 2, 2-Fluoro-8-hydroxy-11-[β-(methylamino)ethylthio)-dibenz-[b,f]oxepin], the ED50 in test [1] (Mus musculus, ip, intraperitoneal, read-out: intraperitoneal dose effecting a 50% inhibition of tetrabenazine-induced ptosis (ED50)) turned out to be 3.3 mg/kg. The compound also came in with an inhibition at 20 mg/kg in test [2] (mice, subcutaneous dose 20 mg/kg of body weight) of 69%.

`CNCCSC1=Cc2ccc(O)cc2Oc2ccc(F)cc21` [Example 3, 2-Fluoro-7-hydroxy-11-[β-(methylamino)ethylthio]-dibenz-[b,f]oxepin]: the inhibition at 20 mg/kg in test [1] (Mus musculus, ip, intraperitoneal dose 20 mg/kg of body weight) was 89%. This compound also came in with an inhibition at 10 mg/kg in test [2] (mice, subcutaneous dose 10 mg/kg of body weight) of 42%.

As for `CCC(=O)O[C@](Cc1ccccc1)(c1ccccc1)[C@H](C)CN(C)C` [Propoxyphene, reference compound], in test [2] (read-out: dose giving calculated 50% inhibition of writhing), the ED50 is 3.9 mg/kg.

On to `CN(C)CCC=C1c2ccccc2CCc2ccccc21` [Amitriptyline, reference compound], for which the “EDso (tetrabenazine-induced ptosis)” value in test [1] (intraperitoneally, standard antidepressant, unit not given) is recorded as 1.5.

The values are drawn from EP0200132A2, “(Aminoalkylthio)hydroxydibenzoxepins, a process for their preparation and their use as medicaments” (HOECHST-ROUSSEL PHARMACEUTICALS INCORPORATED, priority 1985, dated 1986).
